Assays:
[1] = tested on: undifferentiated NANOG^iCasp9-YFP hPSCs; test: Clonal assay for surviving hPSC colonies after AP20187 treatment; assay type: cell-based, human; conditions: 1 nM AP20, 24-hour treatment; across 7 independent experiments
Description: (§1) FIG. 3: Implementation of the NANOG^iCasp9-YFP safety switch. A) Schema depicting how drug AP20187 induces dimerization of Caspase9 in undifferentiated NANOG^iCasp9-YFP hESCs, subsequently triggering cell death (top left). NANOG^iCasp9-YFP hESCs were treated for 24 hours with increasing concentrations of AP20187. AP20187 was withdrawn, and cultures were further grown in mTeSR1 to allow any surviving hESCs to grow; any surviving colonies were counted 1 week later (top right). Alkaline phosphatase staining of whole wells of a 12-well plate after 24-hour treatment with AP20187 (bottom). […] Bioluminescent imaging of mice occurred weekly for 5 weeks with no transplant control (NTC) animals included for relative luminescence normalization. Total flux (photons/sec) was measured for each animal and averaged. […] The percentage of surviving cells was calculated relative to untreated controls. […]
Clonal assay for surviving hPSC colonies—hPSCs were dissociated into single cells with Accutase (Thermo Fisher) and 1×10^6 cells were plated per well of a 6-well plate that was pre-coated with Matrigel. […] Subsequently, AP20187 was withdrawn altogether and hPSCs were cultured with mTeSR1 for 1 week, to allow any surviving hPSCs to regrow and to form clonal colonies, which were then scored (i.e., 1 surviving colony after AP20187 treatment of 1×10^6 hPSCs indicated survival of 1 out of 10^6 cells). […]

[2] = tested on: NANOG-YFP^+ hPSCs mixed with hPSC-derived sclerotome cells; test: Ablation of undifferentiated hPSCs in a heterogeneous cell population (hPSCs spiked into day-5 sclerotome cells); assay type: cell-based, human
Description: as §1
Flow cytometric quantification of viable cells—NANOG^iCasp9-YFP hESCs were dissociated into single cells with Accutase and 1×10^6 cells were plated per well in a 6-well plate pre-coated with Matrigel. […] Subsequently, to quantify the percentage of surviving cells, the cultures were dissociated with TrypLE Express. […] YFP^+ (i.e., NANOG^+) cells were analyzed (Beckman Coulter CytoFlex Analyzer) to count live cells for both untreated and AP20187-treated groups. […]

CC[C@H](C(=O)N1CCCC[C@H]1C(=O)O[C@H](CCc1ccc(OC)c(OC)c1)c1cccc(OCC(=O)NCC(CNC(=O)COc2cccc([C@@H](CCc3ccc(OC)c(OC)c3)OC(=O)[C@@H]3CCCCN3C(=O)[C@@H](CC)c3cc(OC)c(OC)c(OC)c3)c2)CN(C)C)c1)c1cc(OC)c(OC)c(OC)c1 [AP20]
depletion of undifferentiated hPSCs [1]: 1.75×10^6 fold
decrease in NANOG-YFP^+ cells ([2]; 10% undifferentiated hPSCs in day-5 sclerotome progenitors, AP20 for last 24 hours): > 10 fold
colony formation of surviving FACS-purified NANOG-YFP^+ cells ([2]; continued culture in hPSC media after AP20): did not form colonies

Source: US20230085945A1, “ORTHOGONAL SAFETY SWITCHES TO ELIMINATE GENETICALLY ENGINEERED CELLS” (The Board of Trustees of the Leland Stanford Junior …, priority 2020, published 2023)
